Experiments:
Type in all cases: in vivo
[1] = test system: Alopecurus myosuroides (ALOMY); experiment: Test 1 glasshouse assay, pre-emergence herbicidal activity; conditions: 312 h, visual evaluation after 13 days, read-out: Percentage phytotoxicity ALOMY
Method: (§1) Seeds of a variety of test species are sown in standard soil in pots. After cultivation for one day (pre-emergence) or after 8 days cultivation (post-emergence) under controlled conditions in a glasshouse (at 24/16° C., day/night; 14 hours light; 65% humidity), the plants are sprayed with an aqueous spray solution derived from the formulation of the “technical” (i.e. unformulated) active ingredient in acetone/water (50:50) solution containing 0.5% Tween 20 (polyoxyethylene sorbitan monolaurate, CAS Registry Number 9005-64-5). The test plants are then grown on under controlled conditions in a glasshouse (at 24/16° C., day/night; 14 hours light; 65% humidity) and watered twice daily. After 13 days for pre- or post-emergence, the test is evaluated visually, and an assessed percentage phytotoxicity score is given for each herbicidal application on each plant species (where 100%=total damage to plant; 0%=no damage to plant).
(§2) Test plants include the following: Abutilon theophrasti (ABUTH), Amaranthus retroflexus (AMARE): these are dicotyledonous (broadleaved) weeds. Setaria faberi (SETFA), Alopecurus myosuroides (ALOMY), Echinochloa crus-galli (ECHCG): these are grassy monocotyledonous weeds. Also: Zea mays (ZEAMX, corn/maize), which can be a grassy weed (“volunteer” corn) in some circumstances.

[2] = test system: Amaranthus retroflexus (AMARE); experiment: as above; conditions: 312 h, visual evaluation after 13 days, read-out: Percentage phytotoxicity AMARE
Method: as §1, §2

[3] = test system: Echinochloa crus-galli (ECHCG); experiment: as above; conditions: 312 h, visual evaluation after 13 days, read-out: Percentage phytotoxicity ECHCG
Method: as §1, §2

Setaria faberi (SETFA) [4] = experiment: as above; conditions: 312 h, visual evaluation after 13 days, read-out: Percentage phytotoxicity SETFA
Method: as §1, §2

[5] = test system: Abutilon theophrasti (ABUTH); experiment: as above; conditions: 312 h, visual evaluation after 13 days, read-out: Percentage phytotoxicity ABUTH
Method: as §1, §2

[6] = test system: Zea mays (ZEAMX, corn/maize); experiment: as above; conditions: 312 h, visual evaluation after 13 days, read-out: Percentage phytotoxicity ZEAMX
Method: as §1, §2

[7] = test system: Abutilon theophrasti (ABUTH); experiment: Test 1 glasshouse assay, post-emergence herbicidal activity; conditions: 312 h, post-emergence (Example 1B Table 1), after 13 days, read-out: Percentage phytotoxicity ABUTH
Summary of the method: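 Plants sprayed post-emergence after 8 days' growth with active ingredient in acetone/water (50:50) plus 0.5% Tween 20; glasshouse at 24/16° C day/night, 14 h light, 65% humidity. Visual percentage phytotoxicity scored 13 days later (100% = total damage, 0% = none).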

[8] = test system: Digitaria sanguinalis (DIGSA); experiment: Biological Example 3 glasshouse assay, post-emergence, various adjuvant systems; conditions: 8 g/ha, 14 DAA, adjuvant 0.5% v/v Hexamoll DINCH + 1.0% v/v AMS + 12.5% v/v IPA
Method: (§3) Post-emergence foliar spray application, 200 L/ha, usually one or two replicates for the weeds (depending on application rate), and two replicates for soybean.
(§4) Standard warm conditions (tropical), in glasshouse. Specifically, the glasshouse bay conditions are 24° C./18° C. day/night; 16/8 hours light/dark; 65% humidity.
(§5) The herbicidal application takes place at the following growth stages for plants which include inter alia one or more of the following plants (usually the herbicidal application takes place on at least the following plants: DIGSA, ELEIN, SETFA, ZEAMX, GLXMA Nikko, and GLXMA TMG133, and often also either BRADC or BRAPP):
Digitaria sanguinalis (DIGSA)—growth stage 12 or 13
(§6) Each test compound is applied with one of the following adjuvant systems (all percentages are final concentrations in the aqueous spray mixture):
(§7) Adjuvant system 2: 0.5% v/v Hexamoll™ DINCH**, 1.0% v/v AMS (ammonium sulphate) and 12.5% v/v IPA (isopropyl alcohol).
(§8) Adjuvant system 3: 0.5% v/v tris-(2-ethylhexyl)phosphate (“TEHP”), 1.0% v/v AMS (ammonium sulphate) and 12.5% v/v IPA (isopropyl alcohol).
(§9) Seeds of the weed (including volunteer) plants, typically including inter alia Digitaria sanguinalis (DIGSA), Eleusine indica (ELEIN), Setaria faberi (SETFA), Zea mays (ZEAMX, corn), and sometimes also [either Brachiaria decumbens (BRADC) or Brachiaria platyphylla (BRAPP)], are sown in seed trays (troughs) containing clay loam soil (pH 7.0, 2.2% organic matter, “Trough Mix A”); and soybean seed is sown in pots containing the same soil with 3 soybean seedlings per pot. The plants are sprayed with the test herbicide when they reach the growth stages mentioned above.
(§10) The test herbicidal solutions are prepared by mixing the appropriate aliquots of the test substance(s) and one of the adjuvant systems indicated above *** in deionised water to give the desired treatment concentration.
(§11) The herbicidal application is made as a foliar spray, using a tracksprayer. Following the herbicidal application, the plants are watered twice per day for the duration of the test.
(§12) A visual assessment of the % herbicidal damage is made 7 and 14 Days After herbicide Application (DAA) (or, in a minority of cases, 7 and 15 DAA), and the results are recorded as % visual herbicidal damage where 0%=no damage to plants and 100%=plant totally killed.
(§13) Compounds A2 and A7 were tested using the 0.5% v/v Hexamoll™ DINCH™+1.0% v/v AMS+12.5% v/v IPA adjuvant system. Compounds A11, A12, A14, A20 and A21 were tested using the 0.5% v/v tris-(2-ethylhexyl)phosphate (“TEHP”)+1.0% v/v AMS+12.5% v/v IPA adjuvant system.
(§14) The percentages of herbicidal damage/plant control, at 14 Days After herbicide Application (DAA) (or, in some cases, at 15 DAA), for the Compounds tested and for some of the plants tested, were in the following percentage ranges. For the tested compounds, the phytotoxicity results shown herein are generally the average of 2 or 3 repetitions (for the grassy weeds including corn) or the average of 2 repetitions (for soybean for most of the tested compounds). However, for Compound A2 on soybean there was 1 repetion only.

Setaria faberi (SETFA) [9] = experiment: as above; conditions: 8 g/ha, 14 DAA, adjuvant 0.5% v/v Hexamoll DINCH + 1.0% v/v AMS + 12.5% v/v IPA
Method: as §3, §4, §5
Setaria faberi (SETFA)—growth stage 12 or 13
as §6, §7, §8, §9, §10, §11, §12, §13, §14

[10] = test system: Glycine max (GLXMA, soybean) cultivar TMG133 (Roundup Ready glyphosate-tolerant); experiment: as above; conditions: 120 g/ha, 14 DAA, adjuvant 0.5% v/v Hexamoll DINCH + 1.0% v/v AMS + 12.5% v/v IPA, crop
Method: as §3, §4, §5
Glycine max (GLXMA, soybean) cultivar “TMG133”—which is Roundup Ready™ glyphosate-tolerant soybean cultivar TMG133 (typically available from Monsanto in Brazil)—growth stage: 1st trifoliate.
as §6, §7, §8, §9, §10, §11, §12, §13, §14
Glycine max (GLXMA, soybean) cultivar “TMG133” is Roundup Ready™ glyphosate-tolerant soybean cultivar TMG133, and is typically available from Monsanto in Brazil.

| Compound | pest or weed control at 250 g/ha [1] [%] | pest or weed control at 250 g/ha [2] [%] | pest or weed control at 250 g/ha [3] [%] | pest or weed control at 250 g/ha (Setaria faberi (SETFA) [4]) [%] | pest or weed control at 250 g/ha [5] [%] | pest or weed control at 250 g/ha [6] [%] | pest or weed control at 62.5 g/ha [7] [%] | pest or weed control at 250 g/ha [7] [%] | percentage control of (phytotoxicity on) Digitaria sanguinalis (DIGSA) [8] [%] | percentage control of (phytotoxicity on) Setaria faberi (SETFA) (Setaria faberi (SETFA) [9]) [%] | percentage phytotoxicity on Glycine max cultivar TMG133 [10] [%] | pest or weed control at 30 g/ha [7] [%] |
| --- | --- | --- | --- | --- | --- | --- | --- | --- | --- | --- | --- | --- |
| C#CCC1CC(=O)C(c2c(C)cc(-c3ccc(F)cc3)cc2C)C1=O (centres unmarked) [Compound A1, 2-[4-(4-fluorophenyl)-2,6-dimethyl-phenyl]-4-prop-2-ynylcyclopentane-1,3-dione] | 100 | 80 | 100 | 90 | – | – | – | – | – | – | – | – |
| C#CCC1CC(=O)C(c2c(C)cc(-c3ccc(Cl)cn3)cc2C)C1=O (centres unmarked) [Compound A2] | 90 | 90 | 100 | 100 | 50 | 100 | 70 | 80 | 90 | 90 | 20 | – |
| C#CCC1CC(=O)C(c2c(C)cc(-c3ncc(Cl)cc3F)cc2C)C1=O (centres unmarked) [Compound A3] | 100 | 60 | 100 | 100 | 20 | 100 | 80 | 90 | – | – | – | – |
| C#CCC1CC(=O)C(c2c(F)cc(-c3ccc(Cl)cc3)cc2Cl)C1=O (centres unmarked) [Compound A6, 2-[2-chloro-4-(4-chlorophenyl)-6-fluorophenyl]-4-prop-2-ynylcyclopentane-1,3-dione] | 90 | 90 | 100 | 100 | 40 | 90 | – | 70 | – | – | – | 40 |
| C#CCC1CC(=O)C(c2c(Cl)cc(-c3ccc(F)cc3)cc2OC)C1=O (centres unmarked) [Compound A7] | 90 | 70 | 100 | 100 | 0 | 100 | – | 80 | 95 | 91.7 | 0 | 30 |
| C#CCC1CC(=O)C(c2c(F)cc(-c3ccc(Cl)cn3)cc2Cl)C1=O (centres unmarked) [Compound A8] | 90 | 90 | 100 | 100 | 0 | 90 | – | 80 | – | – | – | 70 |
| C#CCC1CC(=O)C(c2c(Cl)cc(-c3ccc(Cl)cn3)cc2OC)C1=O (centres unmarked) [Compound A10] | 100 | 100 | 100 | 100 | 60 | 100 | – | 80 | – | – | – | 80 |
| C#CCC1CC(=O)C(c2c(Cl)cc(-c3ccc(F)c(F)c3)cc2OC)C1=O (centres unmarked) [Compound A13] | 90 | 100 | 100 | 100 | 80 | 100 | – | 80 | – | – | – | 70 |
| C#CCC1CC(=O)C(c2cc(-c3ccc(Cl)cc3Cl)ccc2C)C1=O (centres unmarked) [Compound A15] | – | – | – | – | – | – | – | 60 | – | – | – | – |
| C#CCC1CC(=O)C(c2cc(-c3ncc(Cl)cc3F)ccc2C)C1=O (centres unmarked) [Compound A18] | 60 | 40 | 60 | 70 | 20 | 30 | – | 60 | – | – | – | 0 |
| C#CCC1CC(=O)C(c2cc(-c3ncc(Cl)cn3)ccc2C)C1=O (centres unmarked) [Compound A19] | 60 | 40 | 50 | 60 | 40 | 0 | – | 30 | – | – | – | 0 |
| C#CCC1CC(=O)C(c2c(F)cc(-c3ccc(F)c(F)c3)cc2OC)C1=O (centres unmarked) [Compound A22] | 80 | 30 | 100 | 90 | 0 | 100 | – | 40 | – | – | – | 0 |
| C#CCC1CC(=O)C(c2c(C)cc(C)cc2C)C1=O (centres unmarked) [Compound A23] | 100 | – | 100 | – | – | – | – | – | – | – | – | – |
| C#CCC1CC(=O)C(c2c(CC)cc(C)cc2CC)C1=O (centres unmarked) [Compound A25, 2-(2,6-diethyl-4-methyl-phenyl)-4-(prop-2-ynyl)-cyclopentane-1,3-dione] | 100 | – | 100 | – | – | – | – | – | – | – | – | – |
| C#CCC1C(=O)C(c2c(C)cc(C)cc2C)C(=O)C1CC#C (centres unmarked) [Compound A42] | 100 | – | 80 | – | – | – | – | – | – | – | – | – |
| C#CCC1CC(OC(C)=O)=C(c2c(C)cc(-c3ccc(F)cc3)cc2C)C1=O (centres unmarked) [Compound A45] | 100 | 90 | 100 | 60 | – | – | – | – | – | – | – | – |

Reference: patent US10375956B2, “Herbicidally active 2-(substituted-phenyl)-cyclopentane-1,3-dione compounds and derivatives thereof” (Syngenta Limited, priority 2013, dated 2019)
